Data taken from US20250108141A1, “TOPICAL FORMULATIONS FOR TARGETED DELIVERY OF THERAPEUTICS” (UNM RAINFOREST INNOVATIONS, priority 2023, published 2025).
Entries after “also recorded” stand apart in the source; their conditions may differ.

Tests used:
HPV16-infected SG3 cells = assay: MK-8353 treatment of HPV16-infected SG3 cells, immunoblot; assay type: cell-based; conditions: MK-8353 dissolved in Tc, 48 h
Method: The p-ERK1/2 inhibitor MK-8353 (Selleck Chemicals LLC, Houston, TX) was dissolved in 2-(2-ethoxyethoxy)ethanol (Tc) at 5 mM. HPV16-infected SG3 cells were plated in complete medium and then treatments were initiated without active agent or with increasing concentrations of MK-8353 in serum-free medium. At 24 h post treatment, fresh treatments were added and maintained for an additional 24 h. Cells treated for 48 h were lysed with detergent-containing buffer and 50 μg of each sample was analyzed by SDS-PAGE and immunoblot for the proteins of interest including p-ERK1/2, p-Fra1, HPV16 E7, and actin.

MmuPV1 [1] = assay: MmuPV1-induced tail tumor (wart) model, oral gavage; assay type: in vivo; conditions: oral gavage every 48 hours for four weeks, cobimetinib 7.5 or 15 mg/kg, trametinib 1.0 or 2.0 mg/kg, athymic nude mice
Method: FIG. 3. […] Female Hsd:Athymic Nude-Foxn1^nu mice were infected with 2×10^8 viral genome equivalents (VGE) of MmuPV1 virions. Tumors (warts) were allowed to grow for 6 weeks before randomizing into vehicle or treatment groups (n=6 per group) with each group having an average tumor volume (length×width×height) of approximately 40 mm^3. Mice were dosed by oral gavage treatment every 48 hours for four weeks before harvesting each tumor for histology. (A) Quantification of tail tumor volumes over 32 days of treatment in mice infected with MmuPV1 and treated with vehicle, 7.5 mg/kg cobimetinib, or 15 mg/kg cobimetinib. (B) Quantification of tail tumor volume over 32 days of treatment in mice infected with MmuPV1 and treated with vehicle (same as in FIG. 3A), 1.0 mg/kg trametinib, or 2.0 mg/kg trametinib. Statistical analyses by two-way Anova, Dunnett's T3 test ([…], ** p<0.01). (C) Representative images of tail tumors of a mouse treated with vehicle only. (D) Representative images of tail tumors of a mouse treated with 7.5 mg/kg cobimetinib or 15 mg/kg cobimetinib. (E) Representative images of tail tumors of a mouse treated with 1.0 mg/kg trametinib or 2.0 mg/kg trametinib.

[2] = tested on: HPV16-infected cells established from cervix (W12-E); assay: HPV16-infected W12-E 3D organotypic raft tissue, trametinib added systemically; assay type: cell-based; conditions: 10 nM trametinib added systemically every 48 hours on days 8, 10, 12
Method: FIG. 2. Histology data showing that HPV16 oncogene transcription and activity is modulated by MEK1/2 activation in 3D organotypic epithelial tissue cultures. HPV16-infected cells established from cervix (W12-E) were cultured as raft tissues for 14 days. Panels A-D are taken from tissues cultured under normal conditions. Panels E-H are images of tissue cultured with 10 ng/mL EGF added systemically (in the cell culture medium below the basal layer and collagen matrix) every 48 hours on days 8, 10, and 12 post raft tissue lifting to the air-liquid interface. Panels I-L are images of tissues cultured with 10 nM trametinib added systemically every 48-hours on days 8, 10, and 12 post raft tissue lifting to the air-liquid interface. Tissues were examined for morphology (Top, H&E staining), phosphorylated ERK1/2 (p-ERK1/2) immunohistochemistry (brown), HPV E6&E7 mRNA in situ hybridization (red), and E7 activity via proxy p16INK4A immunohistochemistry. Broken lines underscore the basal cell layer above the collagen matrix; bars=100 μm.

[3] = tested on: HPV16-infected SG3 human keratinocytes; assay: Topical treatment of HPV16-infected 3D organotypic epithelial raft tissues; assay type: cell-based
Method: FIG. 6. […] HPV16-infected (SG3) cells were cultured as raft tissues for 12 days. Duplicate raft tissues were left untreated, or topically treated with 0.5 ml of either vehicle gel (20% Tc, 2.5% HPC in PBS) alone or 30 μM trametinib in vehicle gel for 48 hours. One raft from each duplicate set was collected for total protein extraction for SDS-PAGE and immunoblots (A), the second raft was harvested for tissue fixation, paraffin embedding, and cross-sectioning of tissues for histology (B-J). […] Panels B-D show histology by H&E staining in untreated, vehicle-treated, and 30 μM trametinib-treated rafts. […] Broken lines underscore the basal cell layer.
FIG. 18. Experiment akin to that in FIG. 6, except that it uses 2.5% HPC and 10% Tc for the vehicle. Drug treatment includes 15 μM trametinib. Experimental groups were treated with the topical formulations for 24 hours or 48 hours before harvesting for immunoblots and tissue sectioning.
The experimental protocol used in this example is illustrated in FIG. 5. A semi-solid collagen-fibroblast matrix was created to act as a dermal equivalent (stage 1). HPV16-infected SG3 human keratinocytes (cells) that maintained circular HPV16 genomes extrachromosomally were seeded on the top of the dermal equivalent submerged in growth medium (stage 2). After the HPV-infected keratinocytes grew to confluency (2-3 days), growth medium was removed, and the dermal equivalent was lifted to the air-liquid interface above fresh growth medium (stage 3). Fresh medium was replaced every two days. This allowed the keratinocytes to stratify and differentiate into a multilayered epithelium akin to human skin/mucosa within 10-12 days (Stage 4).
The MEK1/2 inhibitor trametinib was dissolved in diethylene glycol monoethyl ether (TRANSCUTOL; Gattefosse SAS, Saint-Priest, France). The trametinib-2-(2-ethoxyethoxy)ethanol solution was combined with hydroxypropyl cellulose (KLUCEL MXF Pharma, 850 kDa), a pharmaceutical grade thermal gelation agent. Formulations of 30 μM trametinib, 20% 2-(2-ethoxyethoxy)ethanol, and 2.5% hydroxypropyl cellulose applied one time to stratified and differentiated HPV16-infected three-dimensional organotypic epithelial “raft” tissues cultured at the air-liquid interface for 12 days. Each treatment was carried out in duplicate. Tissues were harvested daily two to five days post treatment for total protein extraction and histological analyses (FIG. 6). Specifically, each raft tissue was divided in half with a scalpel. One half was subject to total protein extraction, SDS-PAGE and immunoblot; the second half was fixed in 10% neutral buffered formalin, embedded in paraffin, and sectioned ([…]) on to microscope slides. The tissue sections were subject to histology, immunohistochemistry, or in situ hybridization.
Formulations according to TABLE 2 were prepared. Epithelial raft tissues were prepared as described in Example 1. Each formulation was topically applied to duplicate HPV-infected raft epithelial tissues.
Each formulation was left on the tissue raft undisturbed for 48 hours. 48 hours after treatment, tissues were harvested for protein extraction and histological analysis as described above.
In Example 3, epithelial raft tissues were topically treated in duplicate with formulations including trametinib and 2-(2-ethoxyethoxy)ethanol and analyzed for p-ERK1/2 and E7 protein expression after three days (72 hours). Epithelial raft tissues were prepared as described in Example 1. Formulations were prepared according to TABLE 2. Each epithelial raft tissue was topically treated with one formulation. 72 hours after treatment, epithelial raft tissues were collected for protein extraction.

MmuPV1 [4] = assay: Topical gel treatment of MmuPV1-induced tumors in vivo; design: species or system mice; conditions: daily topical gel (2.5% HPC, 15%-18% TRANSCUTOL) with trametinib 150 μM-600 μM; starting tumors 145.3 mm^3 to 279.4 mm^3
Method: Mice bearing MmuPV1-induced tumors ranging in volume from 145.3 mm^3 to 279.4 mm^3 were treated daily with a topical gel (2.5% HPC, 15%-18% TRANSCUTOL (Gattefosse SAS, Saint-Priest, France)) containing the MEK inhibitor trametinib (150 μM-600 μM).

[5] = tested on: HPV16-infected SG3 human keratinocytes; assay: Topical treatment of HPV16-infected 3D organotypic epithelial raft tissues; assay type: cell-based; conditions: TABLE 2 formulations, single topical treatment, 96 hours
[6] = increasing concentrations in serum-free medium
[7] = 15 μM trametinib in 2.5% HPC and 10% Tc vehicle, 24 hours or 48 hours
[8] = TABLE 2 formulations, 30 μM trametinib, single topical treatment, 48 hours

For `CS[C@@]1(C(=O)Nc2ccc3[nH]nc(-c4ccc(OC(C)C)nc4)c3c2)CCN(CC(=O)N2CC=C(c3ccc(-c4ncn(C)n4)cc3)CC2)C1` [MK-8353], the “phosphorylation of ERK1/2 (p-ERK1/2)” value (HPV16-infected SG3 cells) was “does not necessarily prevent”, the “levels of the HPV16 E7 oncoprotein” value (HPV16-infected SG3 cells; [6]) was “reduce the levels” and the “p-ERK1/2 activity as measured by p-Fra1 phosphorylation” value (HPV16-infected SG3 cells; [6]) was “Suppresses”.
For `O=C(c1ccc(F)c(F)c1Nc1ccc(I)cc1F)N1CC(O)([C@@H]2CCCCN2)C1` [cobimetinib, (S)-[3,4-Difluoro-2-(2-fluoro-4-iodophenylamino)phenyl][3-hydroxy-3-(piperidin-2-yl)azetidine-1-yl]methanone], the “tail tumor (wart) volume” value (MmuPV1 [1]) was “suppresses MmuPV1-induced benign tumor (e.g., wart) growth” and the “tail tumor (wart) volume” value (MmuPV1 [1]; listed as Cobimetinib) was “suppresses wart growth but did not lead to regression”.
`CC(=O)Nc1cccc(-n2c(=O)n(C3CC3)c(=O)c3c(Nc4ccc(I)cc4F)n(C)c(=O)c(C)c32)c1` [trametinib, N-(3-{3-Cyclopropyl-5-[(2-fluoro-4-iodophenyl)amino]-6,8-dimethyl-2,4,7-trioxo-3,4,6,7-tetrahydropyrido[4,3-d]pyrimidin-1 (2H)-yl}phenyl)acetamide] was tested, and the “E7 activity (E7 surrogate p16INK4A protein)” value [2] was “suppresses”, the “MEK activation (p-ERK1/2 immunohistochemistry)” value [2] was “suppresses” and the “production of E6/E7 mRNA (in situ hybridization)” value [2] was “suppresses”. For the same compound, the hyperproliferation ([2]; raft tissues cultured 14 days) was “suppresses”, the “tail tumor (wart) volume” value (MmuPV1 [1]) was “leads to tumor regression; also recorded: regression of warts to a smaller size than those originally treated” and the “E6/E7 mRNA detection” value [3, 7] was “reduced”. The p-ERK1/2 protein detection [3, 7] was “reduced”, the p-ERK1/2 by immunoblot ([3]; 30 μM trametinib, 20% 2-(2-ethoxyethoxy)ethanol, 2.5% HPC gel, applied one time, two days (48 hours) post treatment) was “complete suppression; also recorded: reduction in p-ERK1/2 to almost undetectable levels” and the “p-ERK1/2 suppression, later harvests” value ([3]; 30 μM trametinib, 20% Tc, 2.5% HPC gel, applied one time, three to five days post treatment) was “sustained”. For the same compound, the p-ERK1/2 by immunohistochemistry ([3]; 30 μM trametinib, 20% Tc, 2.5% HPC gel, 48 hours) was “abrogates”, the “HPV16 E6/E7 mRNA by in situ hybridization” value ([3]; 30 μM trametinib, 20% Tc, 2.5% HPC gel, two days post treatment) was “complete suppression; also recorded: reduces E6/E7 mRNA to undetectable levels” and the “HPV16 E7 protein by immunoblot” value [3, 8] was “suppresses”. For the same compound, the p-ERK1/2 by immunoblot [3, 8] was “suppresses”, the hyperplasia ([3]; one-time topical treatment, 30 μM trametinib, 20% Tc, 2.5% HPC) was “suppressed” and the MmuPV1 tumor volume (MmuPV1 [4]) was “promotes MmuPV1 tumor regression”. The E7 by immunoblot [5] was “decrease” and the p-ERK1/2 by immunoblot [5] was “decrease”.
